One series has as its system S. aureus. The series can be described thus: antibiotic disk assay, S. aureus. The settings on record: 10 μg/disk. Format: cell-based.
Another series can be described thus: pH stability. Format: physicochemical. How it is done: Palau'amine was isolated from the sponge as follows. Extraction of the lyophilized sponge (600 g) with MeOH (6 L) and dissolution of the water soluble residue after evaporation yielded 900 ml of an aqueous extract. [The dust from the lyophilized sponge caused a powerful allergic reaction, which entailed severe shortness of breath for about four hours; the effect largely disappeared within 24 hours]. […] Repeated LH-20 chromatography (MeOH) of the 0.5 fraction, after desalting by dissolving in EtOH, furnished essentially pure palau'amine, presumably as the hydrochloride, (14 mg, 0.01% dry weight) as an optically active, off-white amorphous powder that decomposed prior to melting. Further purification of palau'amine could be effected by HPLC [YMC aqueous C18, H2O/MeCN (90:10), 0.1% TFA].

Another series in a line: LD50 i.p. in mice. The conditions noted are these: mouse, in vivo, ip.
Series [1] has as its system human lung carcinoma A-549. The series can be described thus: in vitro antitumor activity, A-549 tumour cells. Format: cell-based. The conditions noted are these: A549. How it is done: (§1) The antitumor activities of this compound have been determined “in vitro” in cell cultures of human lung carcinoma A-549 and human colon carcinoma HT-29. The procedure was carried out using the methodology described by Raymond J. Bergeron et al. Biochem. Bioph. Res. Comm. 1984, 121(3), 848-854 and by Alan C. Schroeder et al. J. Med. Chem. 1981, 24 1078-1083.
(§2) The compound is active against the following tumour cells at the inhibiting concentrations noted: […]

In series [2] the test system is human colon carcinoma HT-29. The series can be described thus: in vitro antitumor activity, HT-29 tumour cells. Format: cell-based. How it is done: as §1, §2
In series [3] the test system is primary culture of murine lymphocytes. The series can be described thus: cytotoxicity assay against primary culture of murine lymphocytes. Format: cell-based. The conditions noted are these: Mus musculus, Lymphocyte.
The next series relates to B. subtilis. The series can be described thus: antibiotic disk assay, B. subtilis. The conditions noted are these: 10 μg/disk. Format: cell-based.
Series [4] has as its system mixed lymphocyte reaction (MLR). The series can be described thus: mixed lymphocyte reaction (MLR). The settings on record: read-out: IC. Format: cell-based.
A further series has as its system KB. The series can be described thus: in vitro antitumor activity, KB tumour cells. Format: cell-based. The conditions noted are these: Homo sapiens.
The subject of the next series is Penicillium notatum. The series can be described thus: antifungal disk assay, Penicillium notatum. Format: cell-based. The conditions noted are these: Penicillium chrysogenum, 50 μg/disk.
The test system of a further series is P-388. The series can be described thus: in vitro antitumor activity, P-388 tumour cells. Format: cell-based. The conditions noted are these: Mus musculus, P388.

Converted amounts (≈) assume the structure as drawn.

For `NC[C@H]1[C@H]2CN3C(=O)c4cccn4[C@H]4N=C(N)NC43[C@H]2[C@@]2(N=C(N)N[C@@H]2O)[C@@H]1Cl` (stereo partly drawn) [palau'amine], the antibiotic activity result with S. aureus and in the series with B. subtilis was “antibiotic activity” throughout. The “stability >pH 6.5” value in the series “pH stability” (>pH 6.5) is recorded as “decomposes rapidly”. In “pH stability” (in acid), the stability in acid result is reported as “quite stable”. Also, the LD50 in the series “LD50 i.p. in mice” was 13 mg/kg. Besides, the IC50 in series [1] was 0.2 µg/mL (≈ 0.476 µM); in [2], 2 µg/mL (≈ 4.76 µM); in series [3], 1.5 µg/mL (≈ 3.57 µM); in [4], under 0.018 µg/mL; in the series with KB, 10 µg/mL (≈ 23.8 µM); in the series with P-388, 0.1 µg/mL (≈ 0.238 µM). In the series with Penicillium notatum, this compound displayed a zone of inhibition at 50 µg/disc of 24 mm.

The LD50 is the dose at which mortality reaches 50%. In general, zone of inhibition refers to the size of the clear area around the sample on an inoculated plate.

The values above are taken from US20020198379A1, “Active compound from a sponge” (Pharma Mar, s.a., priority 1993, published 2002).
